pEC50: −log10 of the molar value. Where two headings read alike, the source gives them in different places.
Target: CFTR (Homo sapiens, UniProt P13569)
Assay: Membrane Potential Dye, Enteroid Assay A
Type: cell-based
Settings: for pEC50: read-out: Ent. A EC50
Procedure: Base medium (ADF+++) consisted of Advanced DMEM/Ham's F12, 2 mM Glutamax, 10 mM HEPES, […] penicillin/streptomycin.
Bath 1 Buffer consisted of 1 mM MgCl2, 160 mM NaCl, 4.5 mM KCl, 10 mM HEPES, 10 mM Glucose, 2 mM CaCl2).
Chloride Free Buffer consisted of 1 mM Magnesium Gluconate, 2 mM Calcium Gluconate, 4.5 mM Potassium Gluconate, 160 mM Sodium Gluconate, 10 mM HEPES, 10 mM Glucose.
Bath 1 Dye Solution consisted of Bath 1 Buffer, 0.04% Pluronic F127, 20 μM Methyl Oxonol, 30 μM CaCCinh-A01, 30 μM Chicago Sky Blue.
Chloride Free Dye Solution consisted of Chloride Free Buffer, 0.04% Pluronic F127, 20 μM Methyl Oxonol, 30 μM CaCCinh-A01, 30 μM Chicago Sky Blue.
3. Enteroid Cell Harvesting and Seeding
Cells were recovered in cell recovery solution, collected by centrifugation at 650 rpm for 5 min at 4° C., resuspended in TryPLE and incubated for 5 min at 37° C. Cells were then collected by centrifugation at 650 rpm for 5 min at 4° C. and resuspended in IEMM containing 10 μM ROCK inhibitor (RI).
4. Membrane Potential Dye, Enteroid Assay A
Briefly, cells were washed 5 times in Bath 1 Buffer. Bath 1 Dye Solution was added, and the cells were incubated for 25 min at room temperature. Following dye incubation, cells were washed 3 times in Chloride Free Dye Solution. Chloride transport was initiated by addition of Chloride Free Dye Stimulation Solution and the fluorescence signal was read for 15 min. […] Chloride transport was then expressed as a percentage of the chloride transport following treatment with 3 μM N-[(6-amino-2-pyridyl)sulfonyl]-6-(3-fluoro-5-isobutoxy-phenyl)-2-[(4S)-2,2,4-trimethylpyrrolidin-1-yl]pyridine-3-carboxamide, 3 μM (R)-1-(2,2-difluorobenzo[d][1,3]dioxol-5-yl)-N-(1-(2,3-dihydroxypropyl)-6-fluoro-2-(1-hydroxy-2-methylpropan-2-yl)-1H-indol-5-yl)cyclopropanecarboxamide and 300 nM acute N-[2,4-bis(1,1-dimethylethyl)-5-hydroxyphenyl]-1,4-dihydro-4-oxoquinoline-3-carboxamide triple combination control (% Activity).

Sequence of CFTR (P13569 with tags, fused parts or gaps DEL508-508): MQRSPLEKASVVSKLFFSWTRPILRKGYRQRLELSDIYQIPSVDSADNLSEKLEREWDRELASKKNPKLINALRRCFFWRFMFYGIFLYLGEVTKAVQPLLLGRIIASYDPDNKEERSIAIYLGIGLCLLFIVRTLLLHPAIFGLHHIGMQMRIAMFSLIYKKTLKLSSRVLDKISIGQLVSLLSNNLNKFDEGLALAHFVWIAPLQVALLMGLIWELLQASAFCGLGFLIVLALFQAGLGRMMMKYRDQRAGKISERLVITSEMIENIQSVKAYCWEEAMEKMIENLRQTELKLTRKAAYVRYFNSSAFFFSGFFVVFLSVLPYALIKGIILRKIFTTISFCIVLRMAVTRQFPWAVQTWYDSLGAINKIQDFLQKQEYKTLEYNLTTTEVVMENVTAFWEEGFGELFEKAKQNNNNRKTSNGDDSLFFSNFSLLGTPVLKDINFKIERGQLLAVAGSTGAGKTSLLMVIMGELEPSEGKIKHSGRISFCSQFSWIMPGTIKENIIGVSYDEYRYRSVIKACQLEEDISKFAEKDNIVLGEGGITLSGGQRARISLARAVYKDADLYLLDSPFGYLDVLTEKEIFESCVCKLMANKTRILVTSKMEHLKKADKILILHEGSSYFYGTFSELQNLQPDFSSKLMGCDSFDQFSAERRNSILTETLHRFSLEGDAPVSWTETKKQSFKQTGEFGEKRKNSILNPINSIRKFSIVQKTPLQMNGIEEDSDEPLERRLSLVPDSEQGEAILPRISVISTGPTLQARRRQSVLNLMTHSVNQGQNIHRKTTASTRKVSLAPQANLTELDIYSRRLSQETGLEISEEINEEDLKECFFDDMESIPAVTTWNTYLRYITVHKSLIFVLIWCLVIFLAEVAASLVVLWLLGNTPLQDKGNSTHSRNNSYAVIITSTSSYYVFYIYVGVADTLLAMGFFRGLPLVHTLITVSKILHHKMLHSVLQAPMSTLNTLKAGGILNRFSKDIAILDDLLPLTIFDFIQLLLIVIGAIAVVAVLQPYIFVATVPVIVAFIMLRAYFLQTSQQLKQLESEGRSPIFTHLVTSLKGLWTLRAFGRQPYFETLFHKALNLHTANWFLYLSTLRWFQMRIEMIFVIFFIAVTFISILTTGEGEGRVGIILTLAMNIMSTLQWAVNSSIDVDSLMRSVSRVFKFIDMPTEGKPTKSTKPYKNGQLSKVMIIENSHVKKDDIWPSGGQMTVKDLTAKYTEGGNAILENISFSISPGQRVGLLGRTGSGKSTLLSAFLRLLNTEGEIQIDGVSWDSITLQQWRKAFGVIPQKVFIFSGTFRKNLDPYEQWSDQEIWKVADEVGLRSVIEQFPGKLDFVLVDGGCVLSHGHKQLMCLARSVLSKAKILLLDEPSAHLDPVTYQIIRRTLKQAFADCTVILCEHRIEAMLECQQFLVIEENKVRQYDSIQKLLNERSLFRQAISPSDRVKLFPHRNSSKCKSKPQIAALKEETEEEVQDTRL

Row | Structure (SMILES) | Ent. A Max Activity (Table 9) | pEC50 (Table 9) | Ent. A Max Activity (Enteroid Assay A) | pEC50 (Enteroid Assay A) | other results
1 | Cc1cccc(C)c1-c1cc2nc(n1)NS(=O)(=O)c1cccc(c1)C(=O)NCC(C#CC(C)(C)C)O2 (stereo not shown) [Compound 297] | ++ (++ is 30-60%) | > 6.00 |  |  | 
2 | Cc1cccc(C)c1-c1cc2nc(n1)NS(=O)(=O)c1cccc(c1)C(=O)NCC1(CCN(C(=O)C3CC[C@@H](NC(=O)OC(C)(C)C)C3)CC1)CO2 (stereo partly shown) [Compound 470] |  |  | ++ (++ is 30-60%) |  | 
3 | CCOc1ccccc1-c1cc2nc(n1)NS(=O)(=O)c1cccc(c1)C(=O)N[C@H](CC(C)C)CO2 [Compound 328] |  |  | ++ (++ is 30-60%) | 5.52 to 6.00 | 
4 | Cc1cccc(C)c1-c1cc2nc(n1)NS(=O)(=O)c1cccc(c1)C(=O)NCC(c1ccc(Br)cc1)O2 (single isomer, unassigned) [Compound 20, 10-(4-bromophenyl)-6-(2,6-dimethylphenyl)-2,2-dioxo-9-oxa-2λ^6-thia-3,5,12,19-tetrazatricyclo[12.3.1.14,8]nonadeca-1(18),4(19),5,7,14,16-hexaen-13-one] |  |  |  |  | pEC50 (Table 8): > 6.00
5 | CC(C)C[C@@H]1COc2cc(-c3ccnn3CC(C)C)nc(n2)NS(=O)(=O)c2cccc(c2)C(=O)N1 [Compound 102, (11R)-11-(2-Methylpropyl)-6-[1-(2-methylpropyl)-1H-pyrazol-5-yl]-9-oxa-2λ^6-thia-3,5,12,19-tetraazatricyclo[12.3.1.14,8]nonadeca-1(17),4(19),5,7,14(18),15-hexaene-2,2,13-trione] |  |  | ++ (++ is 30-60%) | 4.52 to 5.52 | 
6 | Cc1cccc(C)c1-c1cc2nc(n1)NS(=O)(=O)c1cccc(c1)C(=O)NCC1(CCN(CC3CCCCC3)CC1)CO2 [Compound 85, 1′-(Cyclohexylmethyl)-6-(2,6-dimethylphenyl)-2,2-dioxo-spiro[9-oxa-2λ^6-thia-3,5,13,20-tetrazatricyclo[13.3.1.14,8]icosa-1(19),4(20),5,7,15,17-hexaene-11,4′-piperidine]-14-one] |  |  | ++ (++ is 30-60%) | 4.52 to 5.52 | 
7 | Cc1cccc(C)c1-c1cc2nc(n1)NS(=O)(=O)c1cccc(c1)C(=O)NC1(CCC(C(C)(C)C)CC1)CO2 (stereo not shown) [Compound 495] | +++ (+++ is >60%) | > 6.00 |  |  | 
8 | Cc1cccc(C)c1-c1cc2nc(n1)NS(=O)(=O)c1cccc(c1)C(=O)NCC(c1ccc(C(C)(C)C#N)cc1)O2 (stereo not shown) [Compound 152] |  |  |  |  | Ent. A Max Activity (Table 8): + (+ is <30%)
9 | Cc1cccc(C)c1-c1cc2nc(n1)NS(=O)(=O)c1cccc(c1)C(=O)NCC(c1ccc(C34CC(C3)C4)cc1)O2 (stereo not shown) [Compound 397] | + (+ is <30%) | 4.52 to 5.52 |  |  | 
10 | Cc1cccc(C)c1-c1cc2nc(n1)NS(=O)(=O)c1cccc(c1)C(=O)NCC1(CCN(C(=O)c3ccccc3)CC1)CO2 [Compound 474] |  |  |  | 4.52 to 5.52 | 
11 | Cc1cc(C(C)(C)C)ccc1[C@H]1CNC(=O)c2cccc(c2)S(=O)(=O)Nc2nc(cc(-c3c(C)cccc3C)n2)O1 (stereo in doubt) [Compound 156] |  |  |  |  | Ent. A Max Activity (Table 8): + (+ is <30%)
12 | Cc1cccc(C)c1-c1cc2nc(n1)NS(=O)(=O)c1cccc(c1)C(=O)NCC1(CCN(C(=O)C(CC(C)C)NC(=O)OC(C)(C)C)CC1)CO2 (stereo not shown) [Compound 450] |  |  | ++ (++ is 30-60%) | 4.52 to 5.52 | 
13 | Cc1cccc(C)c1-c1cc2nc(n1)NS(=O)(=O)c1cccc(c1)C(=O)N[C@@H](CC(C)C)CCO2 [Compound 224] | ++ (++ is 30-60%) | 5.52 to 6.00 |  |  | 
14 | Cc1cccc(C)c1-c1cc2nc(n1)NS(=O)(=O)c1cccc(c1)C(=O)N[C@H](C(C)C)CO2 [Compound 112, (11R)-6-(2,6-Dimethylphenyl)-11-(propan-2-yl)-9-oxa-2λ^6-thia-3,5,12,19-tetraazatricyclo[12.3.1.14,8]nonadeca-1(17),4,6,8(19),14(18),15-hexaene-2,2,13-trione] |  |  | +++ (+++ is >600%) | > 6.00 | 
15 | Cc1cccc(C)c1-c1cc2nc(n1)NS(=O)(=O)c1cccc(c1)C(=O)NCC(c1ccc(CC(C)(C)C)cc1)O2 (stereo not shown) [Compound 264] | + (+ is <30%) | > 6.00 |  |  | 

Source: patent publication US20230382924A1, “MODULATORS OF CYSTIC FIBROSIS TRANSMEMBRANE CONDUCTANCE REGULATOR” (VERTEX PHARMACEUTICALS INCORPORATED, priority 2020, published 2023)
